In patent publication US6355799B1, “Substituted benzene compounds, process for their preparation, and herbicidal and defoliant compositions containing them” (ISK Americas Incorporated, priority 1997, dated 2002):

Tests used:
Type in all cases: in vivo
[1] = test system: redroot pigweed (Amaranthus retroflexus, AMARE); assay: Pre-emerge test, greenhouse herbicide activity screening; conditions: phytotoxicity rating 0-100, 14 days after application
Procedure, shortened: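 Compounds in acetone were track-sprayed at 15-1000 g ai/ha (187 l/ha) on sandy loam pots: pre-emerge one day after seeding, post-emerge at 2-3 leaf stage with 0.25% v/v non-ionic surfactant. Phytotoxicity was rated 14 days later on a 0 (no damage) to 100 (complete death) scale.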

[2] = test system: barnyardgrass (Echinochloa crus-galli, ECHCG); assay: as above; conditions: phytotoxicity rating 0-100, 14 days after application
From the text: (§1) A standard greenhouse herbicide activity screening system was used to evaluate the herbicidal efficacy and crop safety of these test compounds. Seven broadleaf weed species including redroot pigweed (Amaranthus retroflexus, AMARE, velvetleaf (Abutilon theophrasti, ABUTH), sicklepod (Cassia obtusifolia, CASOB), ivyleaf morningglory (Ipomoea hederacea, IPOHE), lambsquarters (Chenopodium album, CHEAL), common ragweed (Ambrosia artemisizfolia L., AMBEL), and cocklebur (Xanthium strumarium, XANST) were used as test species. Four grass weed species including green foxtail (Setaria viridis, SETVI), barnyardgrass (Echinochloa crus-galli, ECHCG), johnsongrass (Sorghum halepense, SORHA), and large crabgrass (Digitaria sanguinalis, DIGSA) were also used. In addition, three crop species, field corn (Zea mays L., var. Dekalb 535, CORN), soybean (Glycine max L., var. Pella 86, SOY), and is upland rice (Oryza sp., var. Tebonnet, RICE) were included.
(§2) All plants were grown in 10 cm square plastic pots which were filled with a sandy loam soil mix. For pre-emerge tests, seeds were planted one day prior to application of the test compounds. For post-emerge tests, seeds were planted 8-21 days prior to the test to allow emergence and good foliage development prior to application of the test substances. At the time of the post-emerge application, plants of all species were usually at the 2-3 leaf stage of development.
(§3) All test compounds Were dissolved in acetone and applied to the test units in a volume of 187 l /ha. Test materials were applied at rates ranging from 15 g ai/ha to 1000 g ai/ha using a track sprayer equipped with a TJ8001E even flow flat fan spray nozzle. Plants were arranged on a shelf so that the top of the canopy (post-emerge) or top of the soil surface (pre-emerge) was 40-45 cm below the nozzle. Pressurized air was used to force the test solution through the nozzle as it was mechanically advanced (via electrically driven chain drive) over the top of all test plants/pots. This application simulates a typical commercial field herbicide application.
(§4) In the post-emerge test, a commercial non-ionic surfactant was also included (0.25% v/v) to enhance wetting of the leaf surfaces of target plants. Immediately after application, test units of the pre-emerge applications were watered at the soil surface to incorporate the test materials. Subsequently, these test units were bottom-watered. Post-emerge test units were always bottom-watered.
(§5) At 14 days after application of the test materials, phytotoxicity ratings were recorded. A rating scale of 0-100 was used as previously described in Research Methods in Weed Science, 2nd edition, B. Truelove, Ed., Southern Weed Science Society, Auburn University, Auburn, Ala. 1977. Briefly, “0” corresponds to no damage and “100” corresponds to complete death of all plants in the test unit. This scale was used both to determine efficacy against weed species and damage to crop species. Herbicide activity data for various compounds of this invention, which are shown by compound No. in Tables 1-8, are shown in Tables 11 and 12.

[3] = test system: green foxtail (Setaria viridis, SETVI); assay: as above; conditions: phytotoxicity rating 0-100, 14 days after application
From the text: as §1, §2, §3, §4, §5

[4] = test system: ivyleaf morningglory (Ipomoea hederacea, IPOHE); assay: as above; conditions: phytotoxicity rating 0-100, 14 days after application
From the text: as §1, §2, §3, §4, §5

[5] = test system: lambsquarters (Chenopodium album, CHEAL); assay: as above; conditions: phytotoxicity rating 0-100, 14 days after application
From the text: as §1, §2, §3, §4, §5

[6] = test system: large crabgrass (Digitaria sanguinalis, DIGSA); assay: as above; conditions: phytotoxicity rating 0-100, 14 days after application
From the text: as §1, §2, §3, §4, §5

[7] = test system: sicklepod (Cassia obtusifolia, CASOB); assay: as above; conditions: phytotoxicity rating 0-100, 14 days after application
From the text: as §1, §2, §3, §4, §5

[8] = test system: velvetleaf (Abutilon theophrasti, ABUTH); assay: as above; conditions: phytotoxicity rating 0-100, 14 days after application
From the text: as §1, §2, §3, §4, §5

[9] = test system: field corn (Zea mays L., var. Dekalb 535, CORN); assay: Pre-emerge test, crop safety; conditions: crop damage rating 0-100, 14 days after application
Procedure, shortened: (§6)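 Fourteen days after spraying, crop and weed injury was graded visually from 0, no effect, to 100, every plant dead. Test substances were dissolved in acetone and applied at 15–1000 g ai/ha with a flat-fan nozzle. Application was either pre-emergence, one day after sowing, or post-emergence at the 2–3 leaf stage.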

[10] = test system: upland rice (Oryza sp., var. Tebonnet, RICE); assay: Pre-emerge test, crop safety; conditions: crop damage rating 0-100, 14 days after application
Procedure, shortened: as §6

[11] = test system: barnyardgrass (Echinochloa crus-galli, ECHCG); assay: Post-emerge test, greenhouse herbicide activity screening; conditions: post-emerge, 14 days after application, rating scale 0-100
From the text: as §1, §2, §3, §4, §5

[12] = test system: green foxtail (Setaria viridis, SETVI); assay: as above; conditions: post-emerge, 14 days after application, rating scale 0-100
From the text: as §1, §2, §3, §4, §5

[13] = test system: ivyleaf morningglory (Ipomoea hederacea, IPOHE); assay: as above; conditions: post-emerge, 14 days after application, rating scale 0-100
From the text: as §1, §2, §3, §4, §5

[14] = test system: lambsquarters (Chenopodium album, CHEAL); assay: as above; conditions: post-emerge, 14 days after application, rating scale 0-100
From the text: as §1, §2, §3, §4, §5

[15] = test system: large crabgrass (Digitaria sanguinalis, DIGSA); assay: as above; conditions: post-emerge, 14 days after application, rating scale 0-100
From the text: as §1, §2, §3, §4, §5

[16] = test system: redroot pigweed (Amaranthus retroflexus, AMARE); assay: as above; conditions: post-emerge, 14 days after application
From the text: as §1, §2, §3, §4, §5

[17] = test system: sicklepod (Cassia obtusifolia, CASOB); assay: as above; conditions: post-emerge, 14 days after application, rating scale 0-100
From the text: as §1, §2, §3, §4, §5

[18] = test system: velvetleaf (Abutilon theophrasti, ABUTH); assay: as above; conditions: post-emerge, 14 days after application, rating scale 0-100
From the text: as §1, §2, §3, §4, §5

[19] = test system: field corn (Zea mays L., var. Dekalb 535, CORN); assay: Post-emerge test, crop safety; conditions: post-emerge, 14 days after application, rating scale 0-100
Procedure, shortened: (§7)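 Visual ratings on a 0-100 scale (0 no damage, 100 all plants dead) were taken at 14 days after treatment. Rates of 15-1000 g ai/ha in acetone, 187 l/ha, were sprayed onto soil one day after planting (pre-emerge) or onto 2-3 leaf plants with 0.25% v/v surfactant (post-emerge).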

[20] = test system: upland rice (Oryza sp., var. Tebonnet, RICE); assay: Post-emerge test, crop safety; conditions: post-emerge, 14 days after application, rating scale 0-100
Procedure, shortened: as §7

COc1c(Cl)cc(F)c(-n2c(=O)cc(C(F)(F)F)n(C)c2=O)c1NC(=O)OC(C)c1ccccc1 (stereo not shown) [4-47]
Pre-emerge Herbicidal Activity AMARE ([1]; 63 g ai/ha): 70
Pre-emerge Herbicidal Activity AMARE ([1]; 250 g ai/ha): 100
Pre-emerge Herbicidal Activity ECHCG ([2]; 63 g ai/ha): 60
Pre-emerge Herbicidal Activity ECHCG ([2]; 250 g ai/ha): 98
Pre-emerge Herbicidal Activity SETVI ([3]; 63 g ai/ha): 80
Pre-emerge Herbicidal Activity SETVI ([3]; 250 g ai/ha): 100
Pre-emerge Herbicidal Activity IPOHE ([4]; 63 g ai/ha): 30
Pre-emerge Herbicidal Activity IPOHE ([4]; 250 g ai/ha): 100
Pre-emerge Herbicidal Activity CHEAL ([5]; 63 g ai/ha): 100
Pre-emerge Herbicidal Activity CHEAL ([5]; 250 g ai/ha): 100
Pre-emerge Herbicidal Activity DIGSA ([6]; 63 g ai/ha): 70
Pre-emerge Herbicidal Activity DIGSA ([6]; 250 g ai/ha): 100
Pre-emerge Herbicidal Activity CASOB ([7]; 63 g ai/ha): 0
Pre-emerge Herbicidal Activity CASOB ([7]; 250 g ai/ha): 70
Pre-emerge Herbicidal Activity ABUTH ([8]; 63 g ai/ha): 100
Pre-emerge Herbicidal Activity ABUTH ([8]; 250 g ai/ha): 100
Pre-emerge Herbicidal Activity CORN ([9]; 63 g ai/ha): 30
Pre-emerge Herbicidal Activity CORN ([9]; 250 g ai/ha): 90
Pre-emerge Herbicidal Activity RICE ([10]; 63 g ai/ha): 20
Pre-emerge Herbicidal Activity RICE ([10]; 250 g ai/ha): 70
phytotoxicity rating ECHCG ([11]; 63 g ai/ha): 30
phytotoxicity rating ECHCG ([11]; 250 g ai/ha): 50
phytotoxicity rating SETVI ([12]; 63 g ai/ha): 40
phytotoxicity rating SETVI ([12]; 250 g ai/ha): 60
phytotoxicity rating IPOHE ([13]; 63 g ai/ha): 85
phytotoxicity rating IPOHE ([13]; 250 g ai/ha): 100
phytotoxicity rating CHEAL ([14]; 63 g ai/ha): 100
phytotoxicity rating CHEAL ([14]; 250 g ai/ha): 100
phytotoxicity rating DIGSA ([15]; 63 g ai/ha): 40
phytotoxicity rating DIGSA ([15]; 250 g ai/ha): 30
phytotoxicity rating AMARE ([16]; 63 g ai/ha, rating scale 0-100 (0 no damage, 100 complete death)): 75
phytotoxicity rating AMARE ([16]; 250 g ai/ha, rating scale 0-100): 95
phytotoxicity rating CASOB ([17]; 63 g ai/ha): 100
phytotoxicity rating CASOB ([17]; 250 g ai/ha): 100
phytotoxicity rating ABUTH ([18]; 63 g ai/ha): 100
phytotoxicity rating ABUTH ([18]; 250 g ai/ha): 10
phytotoxicity rating CORN (crop damage) ([19]; 63 g ai/ha): 30
phytotoxicity rating CORN (crop damage) ([19]; 250 g ai/ha): 65
phytotoxicity rating RICE (crop damage) ([20]; 63 g ai/ha): 30
phytotoxicity rating RICE (crop damage) ([20]; 250 g ai/ha): 60
